# Assay results taken from US8551921B2, “Method for determining the toxicity of an environmental or chemical sample” (priority 2000, dated 2013).
# Several values for one entry are separate records, joined by “and”; a condition that tells them apart may be missing. Identical values can stand only once. Counter-ions that a name gives are not always drawn. Like-named read-outs stand apart in the source and are kept apart here.
# What was measured:
# [1] = system: JG3 (strain of marine origin); assay: MARA indicator device toxic fingerprint, microorganism no. 3; conditions: Microbial Toxic Concentration; incubation time 16 h
# Method: (§1) • dispense 150 μl of growth medium with indicator in each well • add a concentration gradient of the chemical to be tested to rows B-H in a MARA plate (i.e. an indicator device according to the present invention) • incubate for 16 h • read absorbance values; and • analyse with software.
# (§2) Microbial responses to different chemicals was estimated by kinetic measurements of their growth using the Labsystem automated IEMS reader. A computer software that could monitor incubation temperatures, reading intervals, and automatically transfer OD data to a computer was developed. A growth medium containing 0.05% peptone, 0.011% bromothymol blue (BTB), 1% sodium chloride and 0.3% glucose was added to all wells. The glucose acts as a carbon source, and during growth the microorganism will break down the glucose and produce acids, that will turn the initially blue indicator to yellow. Each microplate contains 12 columns and 8 rows, and thus in each plate, 11 lyophilized microbial strains were used (one for each column, the 12th column was used as negative control). […] In order to avoid drying out of the plates during the incubation, one drop of sterile mineral oil was added to each well. The plate was then incubated in the IEMS spectrophotometer and the absorbance value from each well was measured every second hour during 48 h.
# (§3) The overall toxicity of the chemical compound can be described either as the mean of all 11 MTC values (shown in column 12), or as the minimum value for all 11 microbial strains used in the assay (marked with bold in the table).
# [2] = system: β-proteobacterium A22 (Kalmar 200); assay: MARA indicator device toxic fingerprint, microorganism no. 5; conditions: Microbial Toxic Concentration, incubation time 16 h
# Method: as §1, §2, §3
# [3] = system: JG4 (strain of marine origin); conditions: Microbial Toxic Concentration; incubation time 16 h
# Method: as §1, §2, §3
# ObanF = conditions: Microbial Toxic Concentration; incubation time 16 h
# Method: as §1, §2, §3
# [4] = system: JG1 (strain of marine origin); conditions: Microbial Toxic Concentration; incubation time 16 h
# Method: as §1, §2, §3
# [5] = system: JG2 (strain of marine origin); conditions: Microbial Toxic Concentration, incubation time 16 h
# Method: as §1, §2, §3
# [6] = system: Aeromonas hydriphila HG3 (RV 5.1); conditions: Microbial Toxic Concentration, incubation time 16 h
# Method: as §1, §2, §3
# [7] = system: Saccaromyces ceriviciae (bakers yeast); conditions: Microbial Toxic Concentration, incubation time 16 h
# Method: as §1, §2, §3
# [8] = system: Photobacterium phosphoreum; conditions: IC50-values, established assay; cited from earlier work
# E. coli MZ 480 = assay: MARA indicator device toxic fingerprint, microorganism no. 8; conditions: Microbial Toxic Concentration, incubation time 16 h
# Method: as §1, §2, §3
# Daphnia = conditions: IC50-values, established assay; cited from earlier work
# E. coli = conditions: IC50-values, established assay; cited from earlier work
# [9] = system: Staphylococcus epidermidis (Karin12); assay: MARA indicator device toxic fingerprint, microorganism no. 11; conditions: Microbial Toxic Concentration, incubation time 16 h
# Method: as §1, §2, §3
# [10] = system: 11 different microbial strains; conditions: for Inhibitory concentrations by method: MARA MTCmin: MTC value of the strain showing the highest sensitivity; for Inhibitory concentrations by method: MARA MTCmean: mean MTC for the 11 microbial strains; for Toxic fingerprint: MTC value, Mean: mean of all 11 MTC values
# Method: as §1, §2, §3
# Concentrations are given in mg/ml.
# microorganism no. 7 = assay: MARA indicator device toxic fingerprint, microorganism no. 7; conditions: Microbial Toxic Concentration, incubation time 16 h
# Method: as §1, §2, §3
compound,measurement,setting,value
O=S(=O)([O-])[O-].[Li+].[Li+] [Lithium Sulphate],Toxic fingerprint: MTC value for microorganism no. 3,[1],12.200 and 12.700
same,Toxic fingerprint: MTC value for microorganism no. 5,[2],14.500 and 10.000
same,Toxic fingerprint: MTC value for microorganism no. 4,[3],4.590 and 7.950
same,Toxic fingerprint: MTC value for microorganism no. 9,ObanF,23.400 and 17.500
same,Toxic fingerprint: MTC value for microorganism no. 1,[4],3.700 and 4.780
same,Toxic fingerprint: MTC value for microorganism no. 2,[5],6.300 and 7.170
same,Toxic fingerprint: MTC value for microorganism no. 6,[6],10.600 and 8.490
same,Toxic fingerprint: MTC value for microorganism no. 10,[7],2.650 and 3.570
same,Inhibitory concentrations by method: Microtox,[8],25.763 mg/mL
same,Toxic fingerprint: MTC value for microorganism no. 8,E. coli MZ 480,41.800 and 25.400
same,Inhibitory concentrations by method: Daphnia,Daphnia,0.033 mg/mL
same,Inhibitory concentrations by method: E. coli,E. coli,67.764 mg/mL
same,Toxic fingerprint: MTC value for microorganism no. 11,[9],22.400 and 15.300
same,Inhibitory concentrations by method: MARA MTCmin,[10],3.11 mg/mL
same,Inhibitory concentrations by method: MARA MTCmean,[10],11.330 mg/mL
same,"Toxic fingerprint: MTC value, Mean",[10],9.960 and 12.700
Cn1c(=O)c2c(ncn2C)n(C)c1=O [Caffeine],Toxic fingerprint: MTC value for microorganism no. 5,[2],0.973
same,Toxic fingerprint: MTC value for microorganism no. 5,[2]; listed as Coffein,3.550
same,Toxic fingerprint: MTC value for microorganism no. 2,[5],1.010
same,Toxic fingerprint: MTC value for microorganism no. 2,[5]; listed as Coffein,1.080
same,Toxic fingerprint: MTC value for microorganism no. 6,[6],2.190
same,Toxic fingerprint: MTC value for microorganism no. 6,[6]; listed as Coffein,1.300
same,Toxic fingerprint: MTC value for microorganism no. 10,[7],0.790
same,Toxic fingerprint: MTC value for microorganism no. 10,[7]; listed as Coffein,0.785
same,Toxic fingerprint: MTC value for microorganism no. 7,microorganism no. 7,2.930
same,Toxic fingerprint: MTC value for microorganism no. 7,microorganism no. 7; listed as Coffein,1.510
same,Inhibitory concentrations by method: Microtox,[8],2.129 mg/mL
same,Toxic fingerprint: MTC value for microorganism no. 8,E. coli MZ 480,3.430
same,Toxic fingerprint: MTC value for microorganism no. 8,E. coli MZ 480; listed as Coffein,3.500
same,Inhibitory concentrations by method: Daphnia,Daphnia,0.158 mg/mL
same,Inhibitory concentrations by method: E. coli,E. coli,15.426 mg/mL
same,Toxic fingerprint: MTC value for microorganism no. 11,[9],6.060
same,Toxic fingerprint: MTC value for microorganism no. 11,[9]; listed as Coffein,2.310
same,Inhibitory concentrations by method: MARA MTCmin,[10],0.788 mg/mL
same,Inhibitory concentrations by method: MARA MTCmean,[10],2.085 mg/mL
same,"Toxic fingerprint: MTC value, Mean",[10],2.250
same,"Toxic fingerprint: MTC value, Mean",[10]; listed as Coffein,1.920
COc1ccc(CCN(C)CCCC(C#N)(c2ccc(OC)c(OC)c2)C(C)C)cc1OC (centres unmarked) [Verapamil HCl],Toxic fingerprint: MTC value for microorganism no. 3,[1],0.128
same,Toxic fingerprint: MTC value for microorganism no. 5,[2],0.591
same,Toxic fingerprint: MTC value for microorganism no. 4,[3],3.100
same,Toxic fingerprint: MTC value for microorganism no. 9,ObanF,0.510
same,Toxic fingerprint: MTC value for microorganism no. 1,[4],0.326
same,Toxic fingerprint: MTC value for microorganism no. 2,[5],0.247
same,Toxic fingerprint: MTC value for microorganism no. 6,[6],1.090
same,Toxic fingerprint: MTC value for microorganism no. 10,[7],0.877
same,Toxic fingerprint: MTC value for microorganism no. 7,microorganism no. 7,2.950
same,Inhibitory concentrations by method: Microtox,[8],0.438 mg/mL
same,Toxic fingerprint: MTC value for microorganism no. 8,E. coli MZ 480,0.360
same,Inhibitory concentrations by method: Daphnia,Daphnia,0.055 mg/mL
same,Inhibitory concentrations by method: E. coli,E. coli,0.834 mg/mL
same,Toxic fingerprint: MTC value for microorganism no. 11,[9],0.371
same,Inhibitory concentrations by method: MARA MTCmin,[10],0.360 mg/mL
same,Inhibitory concentrations by method: MARA MTCmean,[10],0.811 mg/mL
same,"Toxic fingerprint: MTC value, Mean",[10],0.811
[F-].[Na+] [Sodium Fluoride],Toxic fingerprint: MTC value for microorganism no. 5,[2],9.500 and 15.000
same,Toxic fingerprint: MTC value for microorganism no. 4,[3],6.040 and 6.560
same,Toxic fingerprint: MTC value for microorganism no. 9,ObanF,22.700 and 20.100
same,Toxic fingerprint: MTC value for microorganism no. 1,[4],3.290 and 2.220
same,Toxic fingerprint: MTC value for microorganism no. 2,[5],2.660 and 2.930
same,Toxic fingerprint: MTC value for microorganism no. 10,[7],5.650 and 4.130
same,Toxic fingerprint: MTC value for microorganism no. 7,microorganism no. 7,6.450 and 7.890
same,Inhibitory concentrations by method: Microtox,[8],9.843 mg/mL
same,Toxic fingerprint: MTC value for microorganism no. 8,E. coli MZ 480,11.400 and 14.600
same,Inhibitory concentrations by method: Daphnia,Daphnia,0.636 mg/mL
same,Inhibitory concentrations by method: E. coli,E. coli,10.547 mg/mL
same,Inhibitory concentrations by method: MARA MTCmin,[10],4.890 mg/mL
same,Inhibitory concentrations by method: MARA MTCmean,[10],8.050 mg/mL
same,"Toxic fingerprint: MTC value, Mean",[10],6.930 and 9.170
Kinidin sulphate,Toxic fingerprint: MTC value for microorganism no. 3,[1],0.113 and 0.104
same,Toxic fingerprint: MTC value for microorganism no. 4,[3],0.243 and 0.233
same,Toxic fingerprint: MTC value for microorganism no. 9,ObanF,0.254 and 0.329
same,Toxic fingerprint: MTC value for microorganism no. 1,[4],0.108 and 0.102
same,Toxic fingerprint: MTC value for microorganism no. 2,[5],0.053 and 0.076
same,Toxic fingerprint: MTC value for microorganism no. 6,[6],0.099 and 0.141
same,Toxic fingerprint: MTC value for microorganism no. 10,[7],0.091 and 0.072
same,Toxic fingerprint: MTC value for microorganism no. 7,microorganism no. 7,0.138 and 0.275
same,Inhibitory concentrations by method: Microtox,[8],0.092 mg/mL
same,Inhibitory concentrations by method: Daphnia,Daphnia,0.062 mg/mL
same,Inhibitory concentrations by method: E. coli,E. coli,1.009 mg/mL
same,Toxic fingerprint: MTC value for microorganism no. 11,[9],0.088 and 0.085
same,Inhibitory concentrations by method: MARA MTCmin,[10],0.087 mg/mL
same,Inhibitory concentrations by method: MARA MTCmean,[10],0.148 mg/mL
same,"Toxic fingerprint: MTC value, Mean",[10],0.150 and 0.145
Oc1c(Cl)c(Cl)c(Cl)c(Cl)c1Cl [Penta Chloro Phenol],Toxic fingerprint: MTC value for microorganism no. 5,[2],0.007 and 0.004
same,Toxic fingerprint: MTC value for microorganism no. 4,[3],0.009 and 0.010
same,Toxic fingerprint: MTC value for microorganism no. 9,ObanF,0.004 and 0.003
same,Toxic fingerprint: MTC value for microorganism no. 1,[4],0.006 and 0.004
same,Toxic fingerprint: MTC value for microorganism no. 2,[5],0.001
same,Toxic fingerprint: MTC value for microorganism no. 6,[6],0.003 and 0.006
same,Toxic fingerprint: MTC value for microorganism no. 7,microorganism no. 7,0.005 and 0.007
same,Inhibitory concentrations by method: Microtox,[8],0.001 mg/mL
same,Toxic fingerprint: MTC value for microorganism no. 8,E. coli MZ 480,0.005 and 0.006
same,Inhibitory concentrations by method: Daphnia,Daphnia,0.001 mg/mL
same,Inhibitory concentrations by method: E. coli,E. coli,0.010 mg/mL
same,Toxic fingerprint: MTC value for microorganism no. 11,[9],0.001
same,Inhibitory concentrations by method: MARA MTCmin,[10],0.001 mg/mL
same,Inhibitory concentrations by method: MARA MTCmean,[10],0.005 mg/mL
same,"Toxic fingerprint: MTC value, Mean",[10],0.004 and 0.005
